# Source: PubChem BioAssay (NCI)
#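 Interpolation was linear, between the two tested concentrations surrounding the appropriate level; five concentrations were tested over 48 hours in 96-well plates. GI50: concentration for 50% inhibition of growth. At the TGI there is no net growth.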
# What was measured:
# Assay in all cases: inhibition of tumour cell growth, NCI panel, 48 h
# NCI/ADR-RES ovarian = system: NCI/ADR-RES ovarian
# SW-620 colon = system: SW-620 colon
# HCT-15 colon = system: HCT-15 colon
# CCRF-CEM leukemia = system: CCRF-CEM leukemia
# UACC-257 melanoma = system: UACC-257 melanoma
# 786-0 renal = system: 786-0 renal
# BT-549 breast = system: BT-549 breast
# TK-10 renal = system: TK-10 renal
# HCT-116 colon = system: HCT-116 colon
# SN12C renal = system: SN12C renal
# HOP-92 NSCLC = system: HOP-92 NSCLC
# CAKI-1 renal = system: CAKI-1 renal
# HT29 colon = system: HT29 colon
# T-47D breast = system: T-47D breast
# SR leukemia = system: SR leukemia
# HS 578T breast = system: HS 578T breast
# PC-3 prostate = system: PC-3 prostate
# MOLT-4 leukemia = system: MOLT-4 leukemia
# HOP-62 NSCLC = system: HOP-62 NSCLC
# UACC-62 melanoma = system: UACC-62 melanoma
# HCC-2998 colon = system: HCC-2998 colon
# DU-145 prostate = system: DU-145 prostate
# RPMI-8226 leukemia = system: RPMI-8226 leukemia
# MCF7 breast = system: MCF7 breast
# SNB-75 CNS = system: SNB-75 CNS
# SNB-19 CNS = system: SNB-19 CNS
# SF-295 CNS = system: SF-295 CNS
# MALME-3M melanoma = system: MALME-3M melanoma
# LOX IMVI melanoma = system: LOX IMVI melanoma
# A498 renal = system: A498 renal
# KM12 colon = system: KM12 colon
# SF-268 CNS = system: SF-268 CNS
# COLO 205 colon = system: COLO 205 colon
# NCI-H522 lung = system: NCI-H522 lung
# SK-MEL-5 melanoma = system: SK-MEL-5 melanoma
# ACHN renal = system: ACHN renal
# OVCAR-3 ovarian = system: OVCAR-3 ovarian
# U251 CNS = system: U251 CNS
# K-562 leukemia = system: K-562 leukemia
# IGROV1 ovarian = system: IGROV1 ovarian
# M14 melanoma = system: M14 melanoma
# SF-539 CNS = system: SF-539 CNS
# A549 NSCLC = system: A549 NSCLC
# OVCAR-5 ovarian = system: OVCAR-5 ovarian
# SK-OV-3 ovarian = system: SK-OV-3 ovarian
# EKVX NSCLC = system: EKVX NSCLC
# MDA-MB-435 = system: MDA-MB-435
# NCI-H23 lung = system: NCI-H23 lung
# MDA-MB-231 breast = system: MDA-MB-231 breast
# RXF 393 renal = system: RXF 393 renal
# OVCAR-4 ovarian = system: OVCAR-4 ovarian
# NCI-H460 lung = system: NCI-H460 lung
# SK-MEL-28 melanoma = system: SK-MEL-28 melanoma
# HL-60(TB) leukemia = system: HL-60(TB) leukemia
# UO-31 renal = system: UO-31 renal
# OVCAR-8 ovarian = system: OVCAR-8 ovarian
# NCI-H226 lung = system: NCI-H226 lung
smiles,measurement,setting,value
CN=C(N)N/N=C(\C)c1ccc2c(c1)Cc1cc(/C(C)=N/NC(N)=NC)ccc1-2,GI50,NCI/ADR-RES ovarian,10.9 µM
same,TGI,NCI/ADR-RES ovarian,> 100 µM
same,GI50,SW-620 colon,2.36 µM
same,TGI,SW-620 colon,6.19 µM
same,GI50,HCT-15 colon,2.04 µM
same,TGI,HCT-15 colon,> 100 µM
same,GI50,CCRF-CEM leukemia,0.444 µM
same,TGI,CCRF-CEM leukemia,> 100 µM
same,GI50,UACC-257 melanoma,3.23 µM
same,TGI,UACC-257 melanoma,> 100 µM
same,GI50,786-0 renal,0.752 µM
same,TGI,786-0 renal,> 100 µM
same,GI50,BT-549 breast,1.96 µM
same,TGI,BT-549 breast,5.62 µM
same,GI50,TK-10 renal,2.32 µM
same,TGI,TK-10 renal,7.09 µM
same,GI50,HCT-116 colon,2.36 µM
same,TGI,HCT-116 colon,> 100 µM
same,GI50,SN12C renal,0.254 µM
same,TGI,SN12C renal,0.781 µM
same,GI50,HOP-92 NSCLC,1.33 µM
same,TGI,HOP-92 NSCLC,6.15 µM
same,GI50,CAKI-1 renal,2.07 µM
same,TGI,CAKI-1 renal,5.37 µM
same,GI50,HT29 colon,2.13 µM
same,TGI,HT29 colon,> 20.8 µM
same,GI50,T-47D breast,2.02 µM
same,TGI,T-47D breast,5.47 µM
same,GI50,SR leukemia,1.81 µM
same,TGI,SR leukemia,> 100 µM
same,GI50,HS 578T breast,0.725 µM
same,TGI,HS 578T breast,3.76 µM
same,GI50,PC-3 prostate,2.13 µM
same,TGI,PC-3 prostate,5.8 µM
same,GI50,MOLT-4 leukemia,0.422 µM
same,TGI,MOLT-4 leukemia,> 100 µM
same,GI50,HOP-62 NSCLC,0.668 µM
same,TGI,HOP-62 NSCLC,> 100 µM
same,GI50,UACC-62 melanoma,2.48 µM
same,TGI,UACC-62 melanoma,> 100 µM
NCCNc1c2c(c(NCCN)c3c(CO)c[nH]c13)C(=O)c1ccccc1C2=O,GI50,HCC-2998 colon,7.14 µM
same,TGI,HCC-2998 colon,52.3 µM
same,GI50,NCI/ADR-RES ovarian,> 100 µM
same,TGI,NCI/ADR-RES ovarian,> 100 µM
same,GI50,SW-620 colon,8.7 µM
same,TGI,SW-620 colon,> 100 µM
same,GI50,HCT-15 colon,> 100 µM
same,TGI,HCT-15 colon,> 100 µM
same,GI50,DU-145 prostate,12 µM
same,TGI,DU-145 prostate,> 100 µM
same,GI50,RPMI-8226 leukemia,31.3 µM
same,TGI,RPMI-8226 leukemia,> 100 µM
same,GI50,MCF7 breast,5.59 µM
same,TGI,MCF7 breast,82 µM
same,GI50,SNB-75 CNS,24.3 µM
same,TGI,SNB-75 CNS,> 100 µM
same,GI50,SNB-19 CNS,3.34 µM
same,TGI,SNB-19 CNS,> 100 µM
same,GI50,SF-295 CNS,6.16 µM
same,TGI,SF-295 CNS,43.8 µM
same,GI50,CCRF-CEM leukemia,4.28 µM
same,TGI,CCRF-CEM leukemia,> 100 µM
same,GI50,MALME-3M melanoma,8.51 µM
same,TGI,MALME-3M melanoma,26.3 µM
same,GI50,UACC-257 melanoma,16.8 µM
same,TGI,UACC-257 melanoma,46 µM
same,GI50,786-0 renal,5.21 µM
same,TGI,786-0 renal,> 100 µM
same,GI50,BT-549 breast,6.72 µM
same,TGI,BT-549 breast,32 µM
same,GI50,LOX IMVI melanoma,8.32 µM
same,TGI,LOX IMVI melanoma,> 100 µM
same,GI50,A498 renal,41.2 µM
same,TGI,A498 renal,> 100 µM
same,GI50,KM12 colon,17.3 µM
same,TGI,KM12 colon,> 100 µM
same,GI50,SF-268 CNS,0.795 µM
same,TGI,SF-268 CNS,6.42 µM
same,GI50,COLO 205 colon,8.38 µM
same,TGI,COLO 205 colon,> 100 µM
same,GI50,TK-10 renal,20.7 µM
same,TGI,TK-10 renal,75.1 µM
same,GI50,HCT-116 colon,7.11 µM
same,TGI,HCT-116 colon,> 100 µM
same,GI50,SN12C renal,1.59 µM
same,TGI,SN12C renal,12.8 µM
same,GI50,NCI-H522 lung,8.13 µM
same,TGI,NCI-H522 lung,> 100 µM
same,GI50,HOP-92 NSCLC,24 µM
same,TGI,HOP-92 NSCLC,> 100 µM
same,GI50,SK-MEL-5 melanoma,19.9 µM
same,TGI,SK-MEL-5 melanoma,69.3 µM
same,GI50,ACHN renal,35.9 µM
same,TGI,ACHN renal,> 100 µM
same,GI50,OVCAR-3 ovarian,1.14 µM
same,TGI,OVCAR-3 ovarian,30.7 µM
same,GI50,U251 CNS,2.53 µM
same,TGI,U251 CNS,> 100 µM
same,GI50,K-562 leukemia,9.54 µM
same,TGI,K-562 leukemia,> 100 µM
same,GI50,HT29 colon,10.6 µM
same,TGI,HT29 colon,> 100 µM
same,GI50,IGROV1 ovarian,15 µM
same,TGI,IGROV1 ovarian,> 100 µM
same,GI50,M14 melanoma,25.3 µM
same,TGI,M14 melanoma,> 100 µM
same,GI50,SF-539 CNS,3.89 µM
same,TGI,SF-539 CNS,39.3 µM
same,GI50,T-47D breast,7.59 µM
same,TGI,T-47D breast,> 100 µM
same,GI50,A549 NSCLC,> 100 µM
same,TGI,A549 NSCLC,> 100 µM
same,GI50,OVCAR-5 ovarian,48.7 µM
same,TGI,OVCAR-5 ovarian,> 100 µM
same,GI50,HS 578T breast,3.27 µM
same,TGI,HS 578T breast,38.9 µM
same,GI50,PC-3 prostate,20.1 µM
same,TGI,PC-3 prostate,> 100 µM
same,GI50,MOLT-4 leukemia,3.93 µM
same,TGI,MOLT-4 leukemia,> 100 µM
same,GI50,SK-OV-3 ovarian,5.96 µM
same,TGI,SK-OV-3 ovarian,> 100 µM
same,GI50,EKVX NSCLC,19.7 µM
same,TGI,EKVX NSCLC,56.2 µM
same,GI50,HOP-62 NSCLC,4.22 µM
same,TGI,HOP-62 NSCLC,> 100 µM
same,GI50,MDA-MB-435,28.7 µM
same,TGI,MDA-MB-435,> 100 µM
same,GI50,NCI-H23 lung,17.2 µM
same,TGI,NCI-H23 lung,> 100 µM
same,GI50,MDA-MB-231 breast,15.5 µM
same,TGI,MDA-MB-231 breast,51.4 µM
same,GI50,RXF 393 renal,5.84 µM
same,TGI,RXF 393 renal,34.7 µM
same,GI50,OVCAR-4 ovarian,38.3 µM
same,TGI,OVCAR-4 ovarian,> 100 µM
same,GI50,NCI-H460 lung,25.7 µM
same,TGI,NCI-H460 lung,> 100 µM
same,GI50,SK-MEL-28 melanoma,24.5 µM
same,TGI,SK-MEL-28 melanoma,> 100 µM
same,GI50,HL-60(TB) leukemia,43.4 µM
same,TGI,HL-60(TB) leukemia,> 100 µM
same,GI50,UO-31 renal,80.8 µM
same,TGI,UO-31 renal,> 100 µM
same,GI50,UACC-62 melanoma,15.2 µM
same,TGI,UACC-62 melanoma,> 100 µM
same,GI50,OVCAR-8 ovarian,5.26 µM
same,TGI,OVCAR-8 ovarian,47.2 µM
same,GI50,NCI-H226 lung,17.9 µM
same,TGI,NCI-H226 lung,91.6 µM
